Broadly, the IC50 is the concentration needed to halve the response being measured. A lower IC50 goes with inhibition by little substance.

human MGL from HeLa cells, sequence (Q99685 whole entry): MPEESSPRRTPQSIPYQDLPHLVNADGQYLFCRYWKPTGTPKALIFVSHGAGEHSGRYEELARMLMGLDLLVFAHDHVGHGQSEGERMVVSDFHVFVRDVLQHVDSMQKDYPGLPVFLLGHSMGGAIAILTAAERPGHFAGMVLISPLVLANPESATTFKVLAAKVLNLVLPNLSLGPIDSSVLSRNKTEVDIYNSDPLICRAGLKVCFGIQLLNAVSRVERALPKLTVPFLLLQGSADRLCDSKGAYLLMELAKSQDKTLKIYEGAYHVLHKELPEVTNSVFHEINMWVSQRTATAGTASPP

The target in the experiment is human MGL from HeLa cells (Homo sapiens (Human), UniProt Q99685). Kind of experiment: MGL in vitro activity assay ([glycerol-1,3-3H]-oleoyl glycerol hydrolysis, activated carbon filtration). The settings on record: 300 nM [Glycerol-1,3-3H]-oleoyl glycerol, one hour. The format is biochemical. A digest of the protocol:
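Endogenous human MGL in HeLa cells/homogenates incubated 1 h with test compounds and 300 nM [glycerol-1,3-3H]-oleoyl glycerol. Released 3H-glycerol passing an activated carbon filter counted as activity; screening at 10 μM compound, top IC50 concentration set empirically.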
The compound `C[C@]1(O)C[C@@H](C(=O)N2CC3(CCC(c4ccc5ccccc5n4)CC3)C2)C1` [Example 124, ((1s,3s)-3-Hydroxy-3-methylcyclobutyl)(7-(quinolin-2-yl)-2-azaspiro[3.5]nonan-2-yl)methanone] yielded an IC50 of 227 nM.

`Cc1cccc(CC2CC3(C2)CN(C(=O)[C@H]2C[C@@](C)(O)C2)C3)c1C1CC1` [Example 207, (6-(2-Cyclopropyl-3-methylbenzyl)-2-azaspiro[3.3]heptan-2-yl)((1s,3s)-3-hydroxy-3-methylcyclobutyl)methanone] returned an IC50 of 1.7 nM.

With `CCc1ccc(OC2CCC3(CC2)CN(C(=O)[C@H]2C[C@@](C)(O)C2)C3)nc1C(F)(F)F` [Example 450, (7-((5-Ethyl-6-(trifluoromethyl)pyridin-2-yl)oxy)-2-azaspiro[3.5]nonan-2-yl)((1s,3s)-3-hydroxy-3-methylcyclobutyl)methanone], the midpoint of inhibition, the IC50, lay at 2.9 nM.

As to `C[C@]1(O)C[C@@H](C(=O)N2CC3(CC[C@@H](Cc4cccc(OC(F)(F)F)c4)C3)C2)C1` (racemic) [Example 180, (rac)-((1s,3s)-3-Hydroxy-3-methylcyclobutyl)(6-(3-(trifluoromethoxy)benzyl)-2-azaspiro[3.4]octan-2-yl)methanone], it took 8.3 nM to reach half-maximal inhibition (IC50). Against the preceding compound, the IC50 is about 2.9-fold higher.

The compound `COc1cc(C)cc(C2CCC3(CC2)CN(C(=O)[C@H]2C[C@@](C)(O)C2)C3)c1` [Example 128, ((1s,3s)-3-Hydroxy-3-methylcyclobutyl)(7-(3-methoxy-5-methylphenyl)-2-azaspiro[3.5]nonan-2-yl)methanone] registered an IC50 of 30 nM.

`CCOc1ccc(C2CCC3(CC2)CN(C(=O)[C@H]2C[C@@](C)(O)C2)C3)cc1C(F)(F)F` [Example 150, (7-(4-Ethoxy-3-(trifluoromethyl)phenyl)-2-azaspiro[3.5]nonan-2-yl)((1s,3s)-3-hydroxy-3-methylcyclobutyl)methanone]: the IC50 amounted to 17 nM.

Regarding `CC(C)c1ccccc1CC1CC2(C1)CN(C(=O)[C@H]1C[C@@](C)(O)C1)C2` [Example 187, ((1s,3s)-3-Hydroxy-3-methylcyclobutyl)(6-(2-isopropylbenzyl)-2-azaspiro[3.3]heptan-2-yl)methanone], it took 12 nM to reach half-maximal inhibition (IC50). This IC50 and that of the compound before are within 1.5-fold of each other.

Compound `C[C@]1(O)C[C@@H](C(=O)N2CC3(CC[C@@H](c4cccc(OC(F)(F)F)c4)C3)C2)C1` (stereo in doubt) [Example 41, ((1s,3*S)-3-Hydroxy-3-methylcyclobutyl)((*R)-6-(3-(trifluoromethoxy)phenyl)-2-azaspiro[3.4]octan-2-yl)methanone] registered an IC50 of 23 nM.

The compound `C[C@]1(O)C[C@@H](C(=O)N2CC3(CCC(c4cccc(C5CCC5)c4)C3)C2)C1` (mixture of isomers) [Example 64, (rac)-(6-(3-Cyclobutylphenyl)-2-azaspiro[3.4]octan-2-yl)((1s,3s)-3-hydroxy-3-methylcyclobutyl)methanone] came in with a half-maximal inhibitory concentration (IC50) of 14 nM. Against the preceding compound, the IC50 is about 1.6-fold lower.

In turn, `C[C@]1(O)C[C@@H](C(=O)N2CC3(CCC(Cc4cccc(OC(F)F)c4)CC3)C2)C1` [Example 160, (7-(3-(Difluoromethoxy)benzyl)-2-azaspiro[3.5]nonan-2-yl)((1s,3s)-3-hydroxy-3-methylcyclobutyl)methanone] showed a half-inhibitory concentration (IC50) of 38 nM. This IC50 is about 2.7-fold higher than that of the compound before.

In the case of `Cc1ccccc1OC1CC2(C1)CN(C(=O)[C@H]1C[C@@](C)(O)C1)C2` [Example 238, ((1s,3s)-3-Hydroxy-3-methylcyclobutyl)(6-(o-tolyloxy)-2-azaspiro[3.3]heptan-2-yl)methanone], the IC50 was 541 nM. This IC50 lies about 14-fold higher than the previous one.

`CCc1cccc(CC2CC3(C2)CN(C(=O)[C@H]2C[C@@](C)(O)C2)C3)c1` [Example 222, (6-(3-Ethylbenzyl)-2-azaspiro[3.3]heptan-2-yl)((1s,3s)-3-hydroxy-3-methylcyclobutyl)methanone] displayed an IC50 of 5.1 nM. This IC50 is about 110-fold lower than that of the compound before.

Compound `Cc1ccc(F)c(C2CCC3(CC2)CN(C(=O)[C@H]2C[C@@](C)(O)C2)C3)c1` [Example 354, (7-(2-Fluoro-5-methylphenyl)-2-azaspiro[3.5]nonan-2-yl)((1s,3s)-3-hydroxy-3-methylcyclobutyl)methanone] yielded a half-maximal inhibitory concentration (IC50) of 20 nM.

As for `COc1cccc(C2CCC3(CC2)CN(C(=O)[C@H]2C[C@@](C)(O)C2)C3)c1C` [Example 106, ((1s,3s)-3-Hydroxy-3-methylcyclobutyl)(7-(3-methoxy-2-methylphenyl)-2-azaspiro[3.5]nonan-2-yl)methanone], the IC50 is 30 nM.

Compound `COc1cccc(C2CCC3(CC2)CN(C(=O)[C@H]2C[C@@](C)(O)C2)C3)c1F` [Example 366, (7-(2-Fluoro-3-methoxyphenyl)-2-azaspiro[3.5]nonan-2-yl)((1s,3s)-3-hydroxy-3-methylcyclobutyl)methanone] returned an IC50 of 50 nM.

In the case of `Cn1ccc2cnc(CC3CC4(C3)CN(C(=O)[C@H]3C[C@@](C)(O)C3)C4)cc21` [Example 298, ((1s,3s)-3-Hydroxy-3-methylcyclobutyl)(6-((1-methyl-1H-pyrrolo[3,2-c]pyridin-6-yl)methyl)-2-azaspiro[3.3]heptan-2-yl)methanone], the concentration for half-maximal inhibition (IC50) was 775 nM.

For the compound `CC(C)n1ncc2ccc(CC3CC4(C3)CN(C(=O)[C@H]3C[C@@](C)(O)C3)C4)cc21` [Example 306, ((1s,3s)-3-Hydroxy-3-methylcyclobutyl)(6-((1-isopropyl-1H-indazol-6-yl)methyl)-2-azaspiro[3.3]heptan-2-yl)methanone], the half-inhibitory concentration (IC50) came out at 23 nM.

`C[C@]1(O)C[C@@H](C(=O)N2CC3(CCC(Cn4ccc5cccnc54)CC3)C2)C1` [Example 400, (7-((1H-Pyrrolo[2,3-b]pyridin-1-yl)methyl)-2-azaspiro[3.5]nonan-2-yl)((1s,3s)-3-hydroxy-3-methylcyclobutyl)methanone]: the half-maximal inhibitory concentration (IC50) is 311 nM.

`CC(C)c1ccc(CC2CC3(C2)CN(C(=O)[C@H]2C[C@@](C)(O)C2)C3)cc1` [Example 185, ((1s,3s)-3-Hydroxy-3-methylcyclobutyl)(6-(4-isopropylbenzyl)-2-azaspiro[3.3]heptan-2-yl)methanone] returned an IC50 of 2.3 nM.

In turn, `COc1cc(C)cc(C2CCC3(C2)CN(C(=O)[C@H]2C[C@@](C)(O)C2)C3)c1` (mixture of isomers) [Example 80, (rac)-((1s,3s)-3-Hydroxy-3-methylcyclobutyl)(6-(3-methoxy-5-methylphenyl)-2-azaspiro[3.4]octan-2-yl)methanone] displayed a half-maximal inhibitory concentration (IC50) of 104 nM.

In turn, `Cc1ccc(OC2CCC3(CC2)CN(C(=O)[C@H]2C[C@@](C)(O)C2)C3)cc1Cl` [Example 411, (7-(3-Chloro-4-methylphenoxy)-2-azaspiro[3.5]nonan-2-yl)((1s,3s)-3-hydroxy-3-methylcyclobutyl)methanone] gave an IC50 of 9.1 nM.

On to `C[C@]1(O)C[C@@H](C(=O)N2CC3(CC(Cc4cccc(C(F)F)c4)C3)C2)C1` [Example 231, (6-(3-(Difluoromethyl)benzyl)-2-azaspiro[3.3]heptan-2-yl)((1s,3s)-3-hydroxy-3-methylcyclobutyl)methanone], for which the IC50 was 14 nM.

As for `CC(C)(C)c1cccc(C2CC3(C2)CN(C(=O)[C@H]2C[C@@](C)(O)C2)C3)c1` [Example 1, (6-(3-(tert-Butyl)phenyl)-2-azaspiro[3.3]heptan-2-yl)((1s,3s)-3-hydroxy-3-methylcyclobutyl)methanone], 9.9 nM corresponded to half-maximal inhibition (IC50).

`C[C@]1(O)C[C@@H](C(=O)N2CC3(CCC(c4cnn5cccc5c4)CC3)C2)C1` [Example 393, ((1s,3s)-3-Hydroxy-3-methylcyclobutyl)(7-(pyrrolo[1,2-b]pyridazin-3-yl)-2-azaspiro[3.5]nonan-2-yl)methanone] returned a 50% inhibitory concentration (IC50) of 27 nM.

The compound `CCc1cc(C)cc(C2CCC3(CC2)CN(C(=O)[C@H]2C[C@@](C)(O)C2)C3)c1` [Example 121, (7-(3-Ethyl-5-methylphenyl)-2-azaspiro[3.5]nonan-2-yl)((1s,3s)-3-hydroxy-3-methylcyclobutyl)methanone] showed an IC50 of 7.4 nM.

In the case of `CC(C)c1cccc(C2(O)CCC3(CC2)CN(C(=O)[C@H]2C[C@@](C)(O)C2)C3)c1` [Example 151, ((1s,3s)-3-Hydroxy-3-methylcyclobutyl)(7-hydroxy-7-(3-isopropylphenyl)-2-azaspiro[3.5]nonan-2-yl)methanone], the half-maximal inhibitory concentration (IC50) was 4.6 nM.

Turning to `CC(C)(C)c1ccc(OC2CC3(C2)CN(C(=O)[C@H]2C[C@@](C)(O)C2)C3)cc1` [Example 246, (6-(4-(tert-Butyl)phenoxy)-2-azaspiro[3.3]heptan-2-yl)((1s,3s)-3-hydroxy-3-methylcyclobutyl)methanone], half-maximal inhibition (IC50) was put at 84 nM.

Compound `C[C@]1(O)C[C@@H](C(=O)N2CC3(CCC(Oc4ccc(OC(F)(F)F)cc4)CC3)C2)C1` [Example 262, ((1s,3s)-3-Hydroxy-3-methylcyclobutyl)(7-(4-(trifluoromethoxy)phenoxy)-2-azaspiro[3.5]nonan-2-yl)methanone] showed a 50% inhibitory concentration (IC50) of 3.2 nM.

Take `Cc1cc(OC2CCC3(CC2)CN(C(=O)[C@H]2C[C@@](C)(O)C2)C3)ccc1C(F)(F)F` [Example 239, ((1s,3s)-3-Hydroxy-3-methylcyclobutyl)(7-(3-methyl-4-(trifluoromethyl)phenoxy)-2-azaspiro[3.5]nonan-2-yl)methanone]: the IC50 came out at 0.4 nM.

`Cn1ccc2ccc(C3(F)CCC4(CC3)CN(C(=O)[C@H]3C[C@@](C)(O)C3)C4)nc21` [Example 341, (7-Fluoro-7-(1-methyl-1H-pyrrolo[2,3-b]pyridin-6-yl)-2-azaspiro[3.5]nonan-2-yl)((1s,3s)-3-hydroxy-3-methylcyclobutyl)methanone] yielded a 50% inhibitory concentration (IC50) of 101 nM.

`C[C@]1(O)C[C@@H](C(=O)N2CC3(CCC(Oc4ccc(C5CC5)c(F)c4)CC3)C2)C1` [Example 415, (7-(4-Cyclopropyl-3-fluorophenoxy)-2-azaspiro[3.5]nonan-2-yl)((1s,3s)-3-hydroxy-3-methylcyclobutyl)methanone] registered an IC50 of 3.3 nM. This IC50 is about 31-fold lower than that of the compound before.

Consider `C[C@]1(O)C[C@@H](C(=O)N2CC3(CC(c4cccc(N5CCCC5)c4)C3)C2)C1` [Example 32, ((1s,3s)-3-Hydroxy-3-methylcyclobutyl)(6-(3-(pyrrolidin-1-yl)phenyl)-2-azaspiro[3.3]heptan-2-yl)methanone], for which half-maximal inhibition (IC50) was put at 178 nM.
